According to patent US6713515B2, “Retinoic acid receptor antagonists as promoters of angiogenesis” (Bristol Myers Squibb Company, priority 2000, dated 2004):
Entries after “also recorded” stand apart in the source; their conditions may differ.

Experiments:
[1] = molecular target: T1, RAR-β (Homo sapiens, UniProt P10826); experiment: Transactivation competition assay (antagonist activity) in transfected HeLa cells; type: cell-based; conditions: for Competition RAR-β % MAX: inhibition of transactivation by 10^−7 M t-RA, 16 hours
T1 sequence (P10826 with tags, fused parts or gaps limits assumed, species assumed): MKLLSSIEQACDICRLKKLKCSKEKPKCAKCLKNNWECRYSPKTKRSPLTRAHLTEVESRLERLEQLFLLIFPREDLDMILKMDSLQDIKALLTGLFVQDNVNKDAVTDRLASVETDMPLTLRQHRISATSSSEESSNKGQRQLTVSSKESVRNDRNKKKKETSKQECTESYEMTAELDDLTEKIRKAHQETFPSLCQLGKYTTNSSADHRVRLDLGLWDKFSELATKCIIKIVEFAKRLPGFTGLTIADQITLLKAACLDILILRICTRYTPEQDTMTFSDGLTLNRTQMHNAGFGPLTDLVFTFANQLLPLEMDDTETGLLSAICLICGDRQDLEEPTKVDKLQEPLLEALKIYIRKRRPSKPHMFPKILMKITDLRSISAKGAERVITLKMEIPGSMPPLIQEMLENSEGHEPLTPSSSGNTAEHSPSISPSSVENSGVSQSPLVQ

[2] = molecular target: T2, RAR-α (Homo sapiens, UniProt P10276); experiment: as above; type: cell-based; conditions: for Competition RAR-α % MAX: inhibition of transactivation by 10^−7 M t-RA, 16 hours
Method: (§1) Antagonist Activity Antagonist activity of the test retinoids was evaluated by a transactivation competition assay. Transfected HeLa cells were treated for 16 hours with 10^−7 M t-RA, with or without test retinoids, at concentrations of 10^−8 to 10^−5 M. The cells were then harvested and assayed for CAT activity. The antagonist activity was determined as an IC50 for the inhibition of transactivation produced by t-RA.
T2 sequence (P10276 with tags, fused parts or gaps limits assumed, species assumed): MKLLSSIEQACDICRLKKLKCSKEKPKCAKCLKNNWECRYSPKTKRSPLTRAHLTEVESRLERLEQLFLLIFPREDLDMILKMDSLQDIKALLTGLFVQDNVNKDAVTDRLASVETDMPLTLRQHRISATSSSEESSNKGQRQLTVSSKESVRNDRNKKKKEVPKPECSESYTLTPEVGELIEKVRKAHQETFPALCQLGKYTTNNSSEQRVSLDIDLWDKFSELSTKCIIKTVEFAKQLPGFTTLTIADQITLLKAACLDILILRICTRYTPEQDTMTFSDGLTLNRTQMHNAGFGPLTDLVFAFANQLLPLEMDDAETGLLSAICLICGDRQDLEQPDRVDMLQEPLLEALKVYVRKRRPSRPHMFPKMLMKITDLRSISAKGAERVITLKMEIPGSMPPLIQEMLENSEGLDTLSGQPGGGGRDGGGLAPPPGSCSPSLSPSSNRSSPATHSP

[3] = molecular target: T3, RAR-γ (Homo sapiens, UniProt P13631); experiment: as above; type: cell-based; conditions: for Competition RAR-γ % MAX: inhibition of transactivation by 10^−7 M t-RA, 16 hours
Method: as §1
T3 sequence (P13631 with tags, fused parts or gaps limits assumed, species assumed): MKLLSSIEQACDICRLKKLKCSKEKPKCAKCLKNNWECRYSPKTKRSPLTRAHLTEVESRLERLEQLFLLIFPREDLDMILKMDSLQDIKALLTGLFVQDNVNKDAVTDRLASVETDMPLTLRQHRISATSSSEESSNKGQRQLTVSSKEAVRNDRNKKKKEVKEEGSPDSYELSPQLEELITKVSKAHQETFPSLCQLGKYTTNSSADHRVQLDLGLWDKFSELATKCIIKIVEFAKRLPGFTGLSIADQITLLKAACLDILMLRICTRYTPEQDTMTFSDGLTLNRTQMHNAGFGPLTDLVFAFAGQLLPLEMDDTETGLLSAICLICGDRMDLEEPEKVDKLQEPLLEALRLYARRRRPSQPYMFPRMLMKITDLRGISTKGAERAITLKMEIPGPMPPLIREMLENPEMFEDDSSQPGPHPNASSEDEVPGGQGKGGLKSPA

[4] = molecular target: T2, RAR-α; experiment: Receptor transactivation, GAL4-RAR chimeric receptor/CAT reporter in HeLa cells; type: cell-based; conditions: 24 hours
[5] = molecular target: T1, RAR-β; experiment: as above; type: cell-based
[6] = molecular target: T4, RAR-α (Homo sapiens, UniProt P10276); experiment: Receptor binding competition assay with radioactive t-RA; conditions: apparent Kd from competition with radioactive t-RA, recombinant RAR; read-out: Direct Binding RAR-α Kd
T4 sequence (P10276 1-462): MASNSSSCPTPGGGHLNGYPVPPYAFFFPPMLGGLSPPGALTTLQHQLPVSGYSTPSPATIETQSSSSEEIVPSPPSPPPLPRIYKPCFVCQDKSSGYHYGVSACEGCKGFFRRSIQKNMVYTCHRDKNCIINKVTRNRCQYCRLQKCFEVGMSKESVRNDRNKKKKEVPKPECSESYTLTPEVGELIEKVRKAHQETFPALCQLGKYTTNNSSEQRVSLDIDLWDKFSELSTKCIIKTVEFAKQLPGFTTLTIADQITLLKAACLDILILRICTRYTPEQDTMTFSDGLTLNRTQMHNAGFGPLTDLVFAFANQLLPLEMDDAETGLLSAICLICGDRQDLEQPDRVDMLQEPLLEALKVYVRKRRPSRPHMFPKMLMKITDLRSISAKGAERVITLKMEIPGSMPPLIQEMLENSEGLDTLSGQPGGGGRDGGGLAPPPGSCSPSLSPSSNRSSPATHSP

[7] = molecular target: T5, RAR-γ (Homo sapiens, UniProt P13631); experiment: as above; conditions: for Kd: apparent Kd from competition with radioactive t-RA, recombinant RAR, read-out: Direct Binding RAR-γ Kd
T5 sequence (P13631 1-454): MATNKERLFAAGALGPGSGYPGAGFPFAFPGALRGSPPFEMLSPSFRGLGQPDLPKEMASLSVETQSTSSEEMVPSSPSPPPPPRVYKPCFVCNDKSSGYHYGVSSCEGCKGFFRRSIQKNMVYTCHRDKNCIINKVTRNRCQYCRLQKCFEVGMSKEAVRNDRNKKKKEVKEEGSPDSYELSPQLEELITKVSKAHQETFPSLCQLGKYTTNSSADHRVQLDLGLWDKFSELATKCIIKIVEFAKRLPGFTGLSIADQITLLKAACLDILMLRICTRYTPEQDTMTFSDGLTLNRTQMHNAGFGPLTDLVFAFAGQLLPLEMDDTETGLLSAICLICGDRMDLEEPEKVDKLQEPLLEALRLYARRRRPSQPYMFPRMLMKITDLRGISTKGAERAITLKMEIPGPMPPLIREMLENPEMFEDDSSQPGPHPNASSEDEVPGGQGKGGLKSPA

[8] = molecular target: T3, RAR-γ; experiment: Receptor transactivation, GAL4-RAR chimeric receptor/CAT reporter in HeLa cells; type: cell-based; conditions: 24 hours
[9] = molecular target: T6, RAR-β (Homo sapiens, UniProt P10826); experiment: Receptor binding competition assay with radioactive t-RA; conditions: apparent Kd from competition with radioactive t-RA, recombinant RAR; read-out: Direct Binding RAR-β Kd
T6 sequence (P10826 1-455): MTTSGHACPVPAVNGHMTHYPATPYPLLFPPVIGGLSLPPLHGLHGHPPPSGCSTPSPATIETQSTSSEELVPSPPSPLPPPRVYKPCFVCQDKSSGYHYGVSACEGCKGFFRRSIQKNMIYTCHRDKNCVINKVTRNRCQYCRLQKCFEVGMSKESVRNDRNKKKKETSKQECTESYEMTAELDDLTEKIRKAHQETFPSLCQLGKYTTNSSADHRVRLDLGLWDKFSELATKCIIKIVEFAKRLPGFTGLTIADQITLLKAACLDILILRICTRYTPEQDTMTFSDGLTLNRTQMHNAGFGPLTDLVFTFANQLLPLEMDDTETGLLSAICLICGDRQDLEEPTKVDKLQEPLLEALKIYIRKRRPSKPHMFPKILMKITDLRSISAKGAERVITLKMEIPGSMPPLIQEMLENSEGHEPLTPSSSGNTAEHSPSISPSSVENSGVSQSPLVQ

[10] = test system: C57BL/KsJ mice; experiment: Skin flap model of angiogenesis; type: in vivo
Method: The skin flap model is a suitable in vivo approach to monitor the angiogenic response because it requires restoration of the disrupted blood vessel network that is impaired at the distal edge of the flap. A single application of vehicle (ethanol) or different concentrations of Compound 5 were performed. The results were monitored one and two weeks after the initiation of the experiment.
Sections were deparaffinized in xylene and rehydrated in a series of ethanol/water solutions. A 4% mouse non-immune serum in PBS was used for blocking. Monoclonal anti-PECAM-1 antibody (CD31, Sigma) was used at 1:100 dilution. FITC-conjugated anti-mouse IgG antibody (Sigma) was further applied to the sections at 1:200 dilution. Visualization was performed on an Olympus fluorescent microscope.
Female C57BL/KsJ mice were purchased from Jackson Labs (Bar Harbor, Me., USA) at the age of 6 weeks. Animals were acclimated for at least 2 weeks and housed 4 per cage with free access to water and food under 12 h light/dark cycle at a temperature of 23±2° C. and a humidity of 55±10%.
The mice were anesthetized by an IP injection of xyalazine/ketamine, the hair at the back clipped and the surface sterilized with 70% ethanol. A 3-way, full-thickness incision was introduced with the use of a scalpel, the skin flap separated from underlying tissues, the compound or vehicle applied, and the skin repositioned and sutured. Mice were housed individually after the procedure. The animals were sacrificed by CO2 inhalation and tissues were fixed in formalin, embedded in paraffin and evaluated histologically or immunocytochemically.

Row | Structure (SMILES) | Competition RAR-β % MAX [1] [%] | IC50 [2] [nM] | Competition RAR-α % MAX [2] [%] | IC50 [3] [nM] | Competition RAR-γ % MAX [3] [%] | Transactivation RAR-α % MAX [4] [%] | Transactivation RAR-β % MAX ([5]; HeLa cells, 24 hours) [%] | RARβ transactivation (agonistic) activity, in words ([5]; reporter transactivation assays) | Kd [6] [nM] | Kd [7] [nM] | Transactivation RAR-γ % MAX [8] [%] | IC50 [1] [nM] | Kd [9] [nM] | Amount of endothelial cells (anti-PECAM-1 staining) ([10]; 0.01% and 0.1%, dose-dependent, FIG. 4) | Number of blood vessels under the flap (histology, H&E) ([10]; lower dose group, FIG. 3 center panel) | Number of blood vessels under the flap (histology, H&E) ([10]; single application, 0.01% and 0.1%, one and two weeks, vs ethanol vehicle, FIG. 3) | Binding to RARγ relative to Compound 4 ([7]; comparison of Kd values) | EC50 ([5]; HeLa cells, 24 hours, 50% of the effect of 10^−6 M t-RA) [nM]
1 | CC1(C)CC=C(c2ccccc2)c2cc(/C=C/c3ccc(C(=O)O)cc3)ccc21 [Compound 4, (E)-4-[2-(5,6-dihydro-5,5-dimethyl-8-phenyl-2-naphthalenyl)ethenyl]benzoic acid] | 80 | 200 | 100 | 200 | 100 | 0 | 20 | weak RARβ transactivation activity; also recorded: weak RARβ agonistic activity | 1 | 0.5 | 0 |  |  |  |  |  |  | 
2 | COc1ccc(C2=CCC(C)(C)c3ccc(/C=C/c4ccc(C(=O)O)cc4)cc32)cc1 [Compound 7, (E)-4-[2-[5,6-dihydro-5,5-dimethyl-8-(4-methoxyphenyl)-2-naphthalenyl]ethenyl]benzoic acid] | 100 | 400 | 100 | 1000 | 100 | 0 | 0 |  | 1.3 | 2.6 | 0 | 1000 | 6.1 |  |  |  |  | 
3 | CC1(C)CC=C(c2ccc3ccccc3c2)c2cc(/C=C/c3ccc(C(=O)O)cc3)ccc21 [Compound 6, (E)-4-[2-[5,6-dihydro-5,5-dimethyl-8-(2-naphthalenyl)-2-naphthalenyl]ethenyl]-benzoic acid] | 100 | 300 | 100 | 900 | 100 | 0 | 0 |  | 2 | 24 | 0 | 500 | 57 |  |  |  |  | 
4 | CC1(C)CC=C(C#Cc2ccccc2)c2cc(/C=C/c3ccc(C(=O)O)cc3)ccc21 [Compound 5, (E)-4-[[(5,6-dihydro-5,5-dimethyl-8-phenylethynyl)-2-naphthalenyl]ethenl]benzoic acid] | 100 | 200 | 100 | 300 | 100 | 0 | 0 |  | 4.2 | 98 | 0 | 300 | 2.9 | increased amounts of endothelial cells; also recorded: higher amounts of endothelial cells | increase in the number of blood vessels | increased angiogenesis; also recorded: significantly higher numbers of blood vessels | approximately two orders weaker | 
5 | CC1(C)CC=C(c2ccccc2)c2cc(/C=C/c3ccc(C(=O)O)cc3Cl)ccc21 [Compound 8, (E)-3-chloro-4-[2-(5,6-dihydro-5,5-dimethyl-8-phenyl-2-naphthalenyl)ethenyl]benzoic acid] | 0 | 3000 | 80 | 2000 | 80 | 0 | 110 |  | 200 | 245 | 0 |  | 2.8 |  |  |  |  | 10
6 | CC1=C(/C=C/C(C)=C/C=C/C(C)=C/C(=O)O)C(C)(C)CCC1 [All Trans RA, all trans retinoic acid, reference compound] |  |  |  |  |  | 100 | 100 |  |  |  | 100 |  |  |  |  |  |  | 
